Experimental data reported in ChEMBL document CHEMBL1255477, “In vitro properties of BAL30072, a novel siderophore sulfactam with activity against multiresistant gram-negative bacilli” (Antimicrob Agents Chemother, 2010).
Active and inactive are the calls of the source.

Experiments:
Citrobacter freundii = experiment: Antimicrobial activity against Citrobacter freundii by broth dilution method; format: functional
Providencia stuartii = experiment: Antimicrobial activity against Providencia stuartii by broth dilution method; format: functional
Proteus penneri = experiment: Antimicrobial activity against Proteus penneri by broth dilution method; format: functional
Acinetobacter sp. = experiment: Antimicrobial activity against Acinetobacter sp. by broth dilution method; format: functional
Proteus vulgaris = experiment: Antimicrobial activity against Proteus vulgaris by broth dilution method; format: functional
Escherichia coli [1] = experiment: Antimicrobial activity against Escherichia coli by broth dilution method; format: functional
Pseudomonas aeruginosa [2] = experiment: Antimicrobial activity against mexAB-oprM protein and mexCD-oprJ deficient Pseudomonas aeruginosa PAO238 by broth dilution method; format: functional
Pseudomonas aeruginosa [3] = experiment: Antimicrobial activity against Pseudomonas aeruginosa BA(C2-107) selected after 25 ug/ml of compound exposure by broth dilution method; format: functional
Proteus mirabilis = experiment: Antimicrobial activity against Proteus mirabilis by broth dilution method; format: functional
[4] = system: Stenotrophomonas maltophilia; experiment: Antimicrobial activity against Stenotrophomonas maltophilia by broth dilution method; format: functional
Pseudomonas aeruginosa [5] = experiment: Antimicrobial activity against Pseudomonas aeruginosa BA(C1-106) selected after 25 ug/ml of compound exposure by broth dilution method; format: functional
Pseudomonas aeruginosa [6] = experiment: Antimicrobial activity against oprD protein deficient Pseudomonas aeruginosa C2 by broth dilution method; format: functional
Serratia marcescens [7] = experiment: Antimicrobial activity against Serratia marcescens by broth dilution method; format: functional
Pseudomonas aeruginosa [8] = experiment: Antimicrobial activity against mexAB-oprM, mexCD-oprJ, mexEF-oprN, mexJK, mexXY, opmH and pscC gene deficient Pseudomonas aeruginosa PAO750 by broth dilution method; format: functional
Klebsiella pneumoniae [9] = experiment: Antimicrobial activity against Klebsiella pneumoniae by broth dilution method; format: functional
Providencia rettgeri [10] = experiment: Antimicrobial activity against Providencia rettgeri by broth dilution method; format: functional
Klebsiella oxytoca [11] = experiment: Antimicrobial activity against Klebsiella oxytoca by broth dilution method; format: functional
Pseudomonas aeruginosa [12] = experiment: Antimicrobial activity against Pseudomonas aeruginosa BA by broth dilution method; format: functional; conditions: Pseudomonas aeruginosa, BA; read-out: MIC
Klebsiella aerogenes = experiment: Antimicrobial activity against Enterobacter aerogenes by broth dilution method; format: functional
Burkholderia sp. = experiment: Antimicrobial activity against Burkholderia sp. by broth dilution method; format: functional
Pseudomonas aeruginosa [13] = experiment: Antimicrobial activity against mexAB-oprM protein and mexCD-oprJ deficient Pseudomonas aeruginosa PAO253 overexpressing MexEF-OprN gene by broth dilution method; format: functional
Pseudomonas aeruginosa [14] = experiment: Antimicrobial activity against Pseudomonas aeruginosa by broth dilution method; format: functional
Pseudomonas aeruginosa [15] = experiment: Antimicrobial activity against mexAB-oprM protein and mexZ deficient Pseudomonas aeruginosa PAO267 by broth dilution method; format: functional
Pseudomonas aeruginosa [16] = experiment: Antimicrobial activity against Pseudomonas aeruginosa B4 by broth dilution method; format: functional
Enterobacter cloacae [17] = experiment: Antimicrobial activity against Enterobacter cloacae by broth dilution method; format: functional
Pseudomonas aeruginosa [18] = experiment: microbe, parasite or virus in culture; conditions: PAO1
Description: Antimicrobial activity against Pseudomonas aeruginosa PAO1 by broth dilution method

Pseudomonas aeruginosa [19] = experiment: Antimicrobial activity against Pseudomonas aeruginosa BA assessed as number of passages required for MIC to rise above 4 times original MIC; format: functional
Acinetobacter junii = experiment: Antimicrobial activity against Acinetobacter junii 15218 assessed as number of passages required for MIC to rise above 4 times original MIC; format: functional
Pseudomonas aeruginosa [20] = experiment: Antimicrobial activity against Pseudomonas aeruginosa 527 assessed as number of passages required for MIC to rise above 4 times original MIC; format: functional
Klebsiella pneumoniae [21] = experiment: Antimicrobial activity against Klebsiella pneumoniae 1338665 assessed as number of passages required for MIC to rise above 4 times original MIC; format: functional
[22] = system: Stenotrophomonas maltophilia; experiment: Antimicrobial activity against Stenotrophomonas maltophilia 1AC736 assessed as number of passages required for MIC to rise above 4 times original MIC; format: functional
Acinetobacter baumannii [23] = experiment: Antimicrobial activity against Acinetobacter baumannii HPA74510 assessed as number of passages required for MIC to rise above 4 times original MIC; format: functional
Pseudomonas aeruginosa [24] = experiment: microbe, parasite or virus in culture; conditions: 18S/H
Description: Antimicrobial activity against Pseudomonas aeruginosa 18S/H harboring beta-lactamase Class C by broth dilution method

Escherichia coli [25] = experiment: Antimicrobial activity against Escherichia coli A harboring beta-lactamase CTX-M 15 by broth dilution method; format: functional
Acinetobacter baumannii [26] = experiment: Antimicrobial activity against Acinetobacter baumannii HPA 327009 harboring beta-lactamase OXA-25 by broth dilution method; format: functional
Providencia rettgeri [27] = experiment: Antimicrobial activity against Providencia rettgeri J96 harboring beta-lactamase IMP-1 by broth dilution method; format: functional
Acinetobacter baumannii [28] = experiment: Antimicrobial activity against Acinetobacter baumannii HPA I-16 harboring beta-lactamase OXA-27 by broth dilution method; format: functional
Pseudomonas aeruginosa [29] = experiment: Antimicrobial activity against Pseudomonas aeruginosa HPA996 harboring beta-lactamase VIM-2 by broth dilution method; format: functional
Escherichia coli [30] = experiment: Antimicrobial activity against Escherichia coli HB101 harboring beta-lactamase TEM-5 by broth dilution method; format: functional
Escherichia coli [31] = experiment: Antimicrobial activity against Escherichia coli CF102 harboring beta-lactamase TEM-3 by broth dilution method; format: functional
Enterobacter cloacae [32] = experiment: Antimicrobial activity against Enterobacter cloacae S9369 assessed as number of passages required for MIC to rise above 4 times original MIC; format: functional
Klebsiella pneumoniae [33] = experiment: Antimicrobial activity against Klebsiella pneumoniae 26768WU harboring beta-lactamase SHV-5 by broth dilution method; format: functional
Pseudomonas aeruginosa [34] = experiment: Antimicrobial activity against Pseudomonas aeruginosa HPA10586 harboring beta-lactamase VIM-1 by broth dilution method; format: functional
Pseudomonas aeruginosa [35] = experiment: Antimicrobial activity against Pseudomonas aeruginosa 1973E harboring beta-lactamase PSE-1 and class C enzymes by broth dilution method; format: functional
Enterobacter cloacae [36] = experiment: Antimicrobial activity against Enterobacter cloacae 908R harboring beta-lactamase AmpC by broth dilution method; format: functional
Pseudomonas aeruginosa [37] = experiment: Antimicrobial activity against Pseudomonas aeruginosa HPA101-1477 harboring beta-lactamase IMP-1 by broth dilution method; format: functional
Escherichia coli [38] = experiment: Antimicrobial activity against Escherichia coli Libyien harboring beta-lactamase CMY-2 by broth dilution method; format: functional
Enterobacter cloacae [39] = experiment: Antimicrobial activity against Enterobacter cloacae S4741B assessed as number of passages required for MIC to rise above 4 times original MIC; format: functional
Pseudomonas aeruginosa [40] = experiment: Antimicrobial activity against Pseudomonas aeruginosa 621 assessed as number of passages required for MIC to rise above 4 times original MIC; format: functional
Escherichia coli [41] = experiment: Antimicrobial activity against Escherichia coli K802N harboring beta-lactamase TEM-3 by broth dilution method; format: functional
Klebsiella pneumoniae [42] = experiment: Antimicrobial activity against Klebsiella pneumoniae 1357E harboring beta-lactamase TEM-10 by broth dilution method; format: functional
Klebsiella oxytoca [43] = experiment: Antimicrobial activity against Klebsiella oxytoca 1028E harboring beta-lactamase K1 by broth dilution method; format: functional
Pseudomonas aeruginosa [44] = experiment: Antimicrobial activity against Pseudomonas aeruginosa 1937E harboring beta-lactamase PSE-4 and class C enzymes by broth dilution method; format: functional
Serratia marcescens [45] = experiment: Antimicrobial activity against Serratia marcescens 1T9 harboring beta-lactamase Class C by broth dilution method; format: functional
Klebsiella pneumoniae [46] = experiment: Antimicrobial activity against Klebsiella pneumoniae CRE harboring beta-lactamase KPC-2 by broth dilution method; format: functional
[47] = system: Stenotrophomonas maltophilia; experiment: Antimicrobial activity against Stenotrophomonas maltophilia B715 harboring beta-lactamase L1and L2 by broth dilution method; format: functional
Acinetobacter baumannii [48] = experiment: Antimicrobial activity against Acinetobacter baumannii HPA 4737 harboring beta-lactamase OXA-26 by broth dilution method; format: functional
Escherichia coli [49] = experiment: Antimicrobial activity against Escherichia coli nmcA harboring beta-lactamase NMCA by broth dilution method; format: functional
Pseudomonas aeruginosa [50] = experiment: microbe, parasite or virus in culture; conditions: BA
Description: Antimicrobial activity against Pseudomonas aeruginosa BA harboring beta-lactamase Class C by broth dilution method

Klebsiella pneumoniae [51] = experiment: Antimicrobial activity against Klebsiella pneumoniae YC harboring beta-lactamase KPC-2,TEM-1and SHV-2 by broth dilution method; format: functional
Serratia marcescens [52] = experiment: Antimicrobial activity against Serratia marcescens S6 harboring beta-lactamase SME-1.AmpC by broth dilution method; format: functional
Acinetobacter baumannii [53] = experiment: Antimicrobial activity against Acinetobacter baumannii HPA74510 harboring beta-lactamase IMP-4 by broth dilution method; format: functional

CC(C)(O/N=C(\C(=O)N[C@@H]1C(=O)N2C(C(=O)[O-])=C(C[n+]3ccccc3)CS[C@H]12)c1csc(N)n1)C(=O)O [CEFTAZIDIME]
16 µg/mL: MIC90 [4] | MIC (Pseudomonas aeruginosa [5]) | MIC50 (Pseudomonas aeruginosa [14]) | MIC50 (Enterobacter cloacae [17])
0.25 µg/mL: MIC90 (Proteus penneri) | MIC90 (Proteus vulgaris) | MIC90 (Proteus mirabilis) | MIC (Pseudomonas aeruginosa [13])
> 32 µg/mL: MIC (Citrobacter freundii) | MIC50 (Citrobacter freundii) | MIC90 (Citrobacter freundii) | MIC90 (Providencia stuartii) | MIC90 (Acinetobacter sp.) | MIC90 (Escherichia coli [1]) | MIC50 (Klebsiella pneumoniae [9]) | MIC90 (Klebsiella pneumoniae [9]) | MIC90 (Providencia rettgeri [10]) | MIC50 (Klebsiella aerogenes) | MIC90 (Klebsiella aerogenes) | MIC90 (Pseudomonas aeruginosa [14]) | MIC90 (Enterobacter cloacae [17])
8 µg/mL: MIC90 (Klebsiella oxytoca [11]) | MIC90 (Burkholderia sp.)
2 µg/mL: MIC (Pseudomonas aeruginosa [3]) | MIC50 [4] | MIC (Pseudomonas aeruginosa [6]) | MIC90 (Serratia marcescens [7]) | MIC (Pseudomonas aeruginosa [12]) | MIC50 (Burkholderia sp.)
0.5 µg/mL: MIC (Pseudomonas aeruginosa [2]) | MIC (Pseudomonas aeruginosa [8]) | MIC (Pseudomonas aeruginosa [15])
32 µg/mL: MIC50 (Acinetobacter sp.) | MIC50 (Escherichia coli [1])
4 µg/mL: MIC (Pseudomonas aeruginosa [16])
≤ 0.06 µg/mL: MIC (Proteus penneri) | MIC50 (Proteus penneri) | MIC (Proteus vulgaris) | MIC50 (Proteus vulgaris) | MIC (Proteus mirabilis) | MIC50 (Proteus mirabilis)
1 µg/mL: MIC50 (Providencia stuartii) | MIC50 (Serratia marcescens [7]) | MIC50 (Providencia rettgeri [10]) | MIC50 (Klebsiella oxytoca [11]) | MIC (Pseudomonas aeruginosa [18])

O=C(O)c1cn(C2CC2)c2cc(N3CCNCC3)c(F)cc2c1=O [CIPROFLOXACIN]
inactive: Activity (Klebsiella pneumoniae [21]) | Activity [22] | Activity (Acinetobacter baumannii [23])
≤ 0.06 µg/mL: MIC (Pseudomonas aeruginosa [2]) | MIC (Pseudomonas aeruginosa [8]) | MIC (Pseudomonas aeruginosa [15])
3 passages: Activity (Pseudomonas aeruginosa [20])
2 passages: Activity (Pseudomonas aeruginosa [19])
1 µg/mL: MIC (Pseudomonas aeruginosa [13])
12 passages: Activity (Acinetobacter junii)

C[C@@H](O)[C@H]1C(=O)N2C(C(=O)O)=C(SCCNC=N)C[C@H]12 [IMIPENEM ANHYDROUS]
9 passages: Activity (Enterobacter cloacae [32])
16 µg/mL: MIC90 (Providencia stuartii) | MIC90 (Klebsiella pneumoniae [9]) | MIC90 (Providencia rettgeri [10]) | MIC90 (Klebsiella aerogenes) | MIC (Acinetobacter baumannii [53])
2 µg/mL: MIC90 (Citrobacter freundii) | MIC (Pseudomonas aeruginosa [2]) | MIC (Pseudomonas aeruginosa [35]) | MIC50 (Serratia marcescens [7]) | MIC (Pseudomonas aeruginosa [8]) | MIC (Pseudomonas aeruginosa [44]) | MIC50 (Klebsiella aerogenes) | MIC50 (Enterobacter cloacae [17]) | MIC (Pseudomonas aeruginosa [18])
inactive: Activity (Pseudomonas aeruginosa [40]) | Activity (Pseudomonas aeruginosa [20]) | Activity [22]
17 passages: Activity (Acinetobacter junii)
1 µg/mL: MIC50 (Citrobacter freundii) | MIC (Pseudomonas aeruginosa [3]) | MIC (Klebsiella pneumoniae [33]) | MIC (Enterobacter cloacae [36]) | MIC (Escherichia coli [38]) | MIC (Pseudomonas aeruginosa [5]) | MIC50 (Klebsiella pneumoniae [9]) | MIC90 (Klebsiella oxytoca [11]) | MIC (Serratia marcescens [45]) | MIC (Pseudomonas aeruginosa [12]) | MIC (Pseudomonas aeruginosa [50]) | MIC (Pseudomonas aeruginosa [15]) | MIC (Pseudomonas aeruginosa [16])
3 passages: Activity (Enterobacter cloacae [39])
4 µg/mL: MIC (Pseudomonas aeruginosa [24]) | MIC50 (Providencia stuartii) | MIC50 (Proteus penneri) | MIC50 (Proteus vulgaris) | MIC50 (Proteus mirabilis) | MIC50 (Providencia rettgeri [10]) | MIC (Pseudomonas aeruginosa [13]) | MIC50 (Pseudomonas aeruginosa [14]) | MIC90 (Enterobacter cloacae [17])
8 µg/mL: MIC90 (Proteus penneri) | MIC90 (Proteus vulgaris) | MIC90 (Proteus mirabilis) | MIC90 (Serratia marcescens [7])
32 µg/mL: MIC90 (Acinetobacter sp.) | MIC (Pseudomonas aeruginosa [6]) | MIC (Escherichia coli [41]) | MIC50 (Burkholderia sp.)
4 passages: Activity (Pseudomonas aeruginosa [19])
0.25 µg/mL: MIC (Escherichia coli [25]) | MIC50 (Acinetobacter sp.) | MIC50 (Escherichia coli [1]) | MIC (Escherichia coli [30]) | MIC50 (Klebsiella oxytoca [11])
2 passages: Activity (Klebsiella pneumoniae [21])
1 passages: Activity (Acinetobacter baumannii [23])
0.5 µg/mL: MIC90 (Escherichia coli [1]) | MIC (Escherichia coli [31]) | MIC (Klebsiella pneumoniae [42]) | MIC (Klebsiella oxytoca [43])
> 32 µg/mL: MIC (Acinetobacter baumannii [26]) | MIC (Providencia rettgeri [27]) | MIC (Acinetobacter baumannii [28]) | MIC (Pseudomonas aeruginosa [29]) | MIC (Pseudomonas aeruginosa [34]) | MIC [4] | MIC50 [4] | MIC90 [4] | MIC (Pseudomonas aeruginosa [37]) | MIC (Klebsiella pneumoniae [46]) | MIC [47] | MIC90 (Burkholderia sp.) | MIC (Acinetobacter baumannii [48]) | MIC90 (Pseudomonas aeruginosa [14]) | MIC (Escherichia coli [49]) | MIC (Klebsiella pneumoniae [51]) | MIC (Serratia marcescens [52])
